For one molecule, MIC results are on record in ChEMBL document CHEMBL2046269, “Phthalide and isocoumarin derivatives produced by an Acremonium sp. isolated from a mangrove Rhizophora apiculata” (2012).

Converted amounts (≈) assume the structure as drawn.

For this assay, the system named is Candida albicans. In words: Antifungal activity against Candida albicans NCPF 3153 after 15 hrs by colorimetric broth microdilution test. The settings on record: NCPF 3153, 15 h. Type of assay: functional.

`C[C@H]1CCC/C=C/[C@@H]2C[C@H](O)C[C@H]2[C@H](O)/C=C/C(=O)O1` [BREFELDIN A] had a minimum inhibitory concentration (MIC) of 32 µg/mL (≈ 114 µM).

By MIC is commonly meant the lowest concentration found to suppress growth.
